Data as given in publication PMC6368365, “Didehydro-Cortistatin A Inhibits HIV-1 by Specifically Binding to the Unstructured Basic Region of Tat” (mBio, 2019).

Columns and labels:
HIV-1 TAR = test: ITC of dCA binding to TAR; conditions: 25°C
Text: FIG 6 dCA binding to Tat disrupts Tat-TAR interaction. (A) EMSA of full-length Tat with TAR in the presence of dCA. Raltegravir (Ralt.) and deleted bulge TAR (ΔTAR) were used as negative controls. Data are representative of n = 3 independent experiments. (B) EMSA of Tat’s basic domain with TAR in the presence of increasing concentrations of dCA to Tat’s basic peptide. Pep B is a peptide encompassing the basic domain of HIV Tat (^45ISYGRKKRRQRRRAP^59). Pep C (^69LSKQPASQPRGDPTG^83) and unlabeled or cold TAR (TARc) were used as negative controls. Neomycin, which binds to Tat and TAR, was used as a positive control. Ratios of compounds (or TARc) concentrations to peptide are shown. Data are representative of n = 3 independent experiments. […] Shown are ITC results from binding of dCA (left) or Tat peptide (right) to TAR at 25°C. […] Luciferase activity was determined relative to protein concentration (Bradford assay) (Fig. S9A). […] Statistical significance was determined using one-way ANOVA with post hoc Tukey’s test with 3 technical replicates. ns, not significant; ***, P < 0.0001. […]
Isothermal titration calorimetry. […] Each injection generated a heat burst curve (microcalories/second vs. seconds) and the area under each curve was determined by integration [using the origin version 7.0 software (Microcal, Inc.; Northampton, MA)] to obtain the measure of the heat associated with that injection.

HIV Tat HXB3 = target: T1, HIV Tat HXB3 (Human immunodeficiency virus type 1 group M subtype B, UniProt P69697); test: Isothermal titration calorimetry of dCA binding to Tat; set-up: species or system HIV-1
T1 construct: pTatC6H-1 (NIH AIDS Reagent Program) plasmid encoding C-terminal 6xHistidine Tat1-86 (HXB3, subtype B); made in house; host or cells: E. coli BL21 (plasmid pTatC6H-1, NIH AIDS Reagent Program)
Text: Next, we studied the direct interaction of Tat with dCA using ITC. After gradual titration of Tat with dCA in the ITC cell, the integrated heat data of the dCA-Tat interaction were collected (Fig. 1G). This ITC titration curve fitted well with a single-site binding process with a nonlinear least-squares regression, allowing the determination of the association constant (Ka) and entropy (ΔS) and enthalpy (ΔH) changes, as well as the average number of binding sites (N). We determined a 1:1 binding stoichiometry with a Ka of ∼(9.39 ± 1.7) × 10^6 M^−1 (dissociation constant [Kd] = 100 nM). Moreover, dCA binds to Tat at 25°C with a negative (favorable) enthalpy of −3.5 ± 0.1 kcal mol^−1 and positive (favorable) entropy of +20.0 ± 0.5 cal mol^−1 K^−1. The favorable values of ΔH and ΔS are consistent with the characteristics of a combination of van der Waals, hydrophobic, and electrostatic interactions in the binding process. The difference between Tat/dCA affinity (ITC, 100 nM) and dCA inhibitory activity in cell-based assays (0.6 to 2 nM) (Table 2) ([10]) could be the result of the nature of the Tat-TAR feedback loop that amplifies activity in vivo; especially since the amount of Tat in vivo after infection is very low ([24]).
A detailed protocol for ITC is provided in Text S1.
Isothermal titration calorimetry. The measurements were conducted at 25 °C on a Microcal VP-ITC (Microcal, Inc.; Northampton MA). Titrations of HIV Tat HXB3 and HIV-1 TAR with dCA (or peptide, ^46SYGRKKRRQRRRPPQ^60) were done by injecting 250 μL into an isothermal sample chamber containing 1.5 mL HIV Tat HXB3 or HIV-1 TAR solution that was 10 μM in strand. Each experiment of this type was accompanied by the corresponding control experiment in which peptide or dCA injected into a solution of buffer alone. The duration of each injection was 8 s and the delay between the injections was 300 s and 180 s, the initial delay prior to the first injection was 300 s. Each injection generated a heat burst curve (microcalories/second vs. seconds) and the area under each curve was determined by integration [using the origin version 7.0 software (Microcal, Inc.; Northampton, MA)] to obtain the measure of the heat associated with that injection.

T1 sequence (P69697 whole entry): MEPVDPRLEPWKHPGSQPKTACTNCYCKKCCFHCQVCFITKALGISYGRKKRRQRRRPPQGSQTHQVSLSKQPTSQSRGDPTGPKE

CN(C)C1CC23CCC4(O2)C(=CCC2(C)C(c5ccc6ccncc6c5)=CCC24)C=C3C(O)C1O (centres unmarked) [dCA, didehydro-cortistatin A]
binding to TAR (ITC) (HIV-1 TAR): does not bind to TAR | Kd (HIV Tat HXB3): 100 nM | enthalpy (ΔH) (HIV Tat HXB3; ITC, 25°C): -3.5 ± 0.1 kcal/mol | entropy (ΔS) (HIV Tat HXB3; ITC, 25°C): +20.0 ± 0.5 cal mol^−1 K^−1 | association constant (Ka) (HIV Tat HXB3; ITC, 25°C, single-site fit): (9.39 ± 1.7) × 10^6 M^−1
